Read-outs that look alike come from different tables or passages of the source.
How the values were obtained:
[1] = system: RPE1 (normal human immortalized retinal pigment epithelial cell line); assay: cells; assay type: cell-based; settings: for IC50: Homo sapiens, RPE-1, MTT, normal RPE1 cell, read-out: IC50, μM ± SEM RPE1
[2] = system: HCT116 (colon) cancer cell line; assay: 2D-monolayer antiproliferation (MTT) against HCT116; assay type: cell-based, human; settings: for IC50: Homo sapiens, HCT-116; for SI (selectivity index) HCT116: IC50 of RPE1 normal cell/IC50 of HCT116
[3] = biological target: T1, COX-2 (Homo sapiens, UniProt P35354); assay: biochemical; settings: for inhibition at 10 µM: 3 replicates, read-out: % Inhibition of COX-2 ± SEM; for SI (selectivity index, COX-2/COX-1): at 10 μM
T1 construct: purchased BioVision incorporated USA K548–100
T1 sequence (P35354 18-604): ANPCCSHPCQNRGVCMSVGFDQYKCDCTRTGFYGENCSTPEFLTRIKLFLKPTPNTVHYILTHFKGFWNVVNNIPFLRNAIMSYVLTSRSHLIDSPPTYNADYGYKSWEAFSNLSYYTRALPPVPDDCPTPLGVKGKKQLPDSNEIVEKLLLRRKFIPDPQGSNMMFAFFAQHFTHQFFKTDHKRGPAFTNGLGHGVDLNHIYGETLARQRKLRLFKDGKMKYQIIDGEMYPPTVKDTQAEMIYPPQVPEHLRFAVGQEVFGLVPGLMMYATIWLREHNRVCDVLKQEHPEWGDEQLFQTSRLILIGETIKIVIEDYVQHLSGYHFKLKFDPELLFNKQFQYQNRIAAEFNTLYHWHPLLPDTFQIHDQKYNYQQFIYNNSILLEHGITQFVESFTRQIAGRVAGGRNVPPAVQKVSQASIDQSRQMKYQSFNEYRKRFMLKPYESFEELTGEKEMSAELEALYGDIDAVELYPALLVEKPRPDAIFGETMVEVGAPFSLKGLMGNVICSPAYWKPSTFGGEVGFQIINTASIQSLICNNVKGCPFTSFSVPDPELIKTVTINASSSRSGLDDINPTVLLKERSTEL

[4] = biological target: T2, VEGFR-2 (Homo sapiens, UniProt P35968); assay: cell-based; assay type: cell-based; settings: for inhibition at 10 µM: HCT-116, HCT116; for VEGFR-2 pg/mL ± SEM HCT116: at 10 μM, control 317.80 ± 3.5
T2 construct: endogenous in cells; host or cells: HCT116, PaCa2, MCF7 (human cancer cell lines, ATCC origin)
T2 sequence (P35968 20-1356): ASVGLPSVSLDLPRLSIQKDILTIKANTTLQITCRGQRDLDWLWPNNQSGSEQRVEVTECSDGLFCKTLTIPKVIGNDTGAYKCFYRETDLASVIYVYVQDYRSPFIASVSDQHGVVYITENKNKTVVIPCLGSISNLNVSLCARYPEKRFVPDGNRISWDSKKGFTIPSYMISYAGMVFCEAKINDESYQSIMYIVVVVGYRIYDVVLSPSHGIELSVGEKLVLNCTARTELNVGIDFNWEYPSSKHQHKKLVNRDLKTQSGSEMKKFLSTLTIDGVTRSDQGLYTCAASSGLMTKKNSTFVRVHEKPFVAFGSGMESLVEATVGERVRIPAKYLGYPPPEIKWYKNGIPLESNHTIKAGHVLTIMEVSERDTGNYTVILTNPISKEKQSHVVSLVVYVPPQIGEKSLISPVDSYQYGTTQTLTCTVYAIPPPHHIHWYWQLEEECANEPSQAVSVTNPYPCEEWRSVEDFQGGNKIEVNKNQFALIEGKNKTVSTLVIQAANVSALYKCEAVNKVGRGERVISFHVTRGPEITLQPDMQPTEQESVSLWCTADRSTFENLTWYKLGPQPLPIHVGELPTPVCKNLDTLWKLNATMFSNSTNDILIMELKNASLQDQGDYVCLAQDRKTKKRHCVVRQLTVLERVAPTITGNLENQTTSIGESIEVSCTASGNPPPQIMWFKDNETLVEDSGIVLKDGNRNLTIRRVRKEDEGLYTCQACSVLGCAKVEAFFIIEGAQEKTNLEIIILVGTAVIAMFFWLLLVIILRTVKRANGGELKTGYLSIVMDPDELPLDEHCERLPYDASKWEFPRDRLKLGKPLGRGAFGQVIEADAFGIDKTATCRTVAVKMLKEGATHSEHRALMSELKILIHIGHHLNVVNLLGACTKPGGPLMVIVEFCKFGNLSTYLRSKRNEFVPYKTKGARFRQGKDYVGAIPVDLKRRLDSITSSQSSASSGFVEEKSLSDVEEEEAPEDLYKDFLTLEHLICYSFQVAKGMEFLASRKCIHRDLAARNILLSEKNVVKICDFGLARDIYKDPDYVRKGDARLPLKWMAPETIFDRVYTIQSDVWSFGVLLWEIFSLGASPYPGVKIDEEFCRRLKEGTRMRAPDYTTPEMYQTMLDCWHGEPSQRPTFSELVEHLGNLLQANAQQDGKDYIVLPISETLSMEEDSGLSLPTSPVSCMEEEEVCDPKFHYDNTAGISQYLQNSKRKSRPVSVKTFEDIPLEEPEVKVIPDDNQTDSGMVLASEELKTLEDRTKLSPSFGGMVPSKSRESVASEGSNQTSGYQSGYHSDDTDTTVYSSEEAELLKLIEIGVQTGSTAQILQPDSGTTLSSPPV

[5] = system: TNF-α; assay: TNF-α inhibitory properties (ELISA), HCT116 cell lysate; assay type: cell-based, human; settings: at 10 μM; for TNF-α pg/mL (± SEM) HCT116: control 95.74 ± 0.5
[6] = biological target: T2, VEGFR-2; assay: cell-based; assay type: cell-based; settings: for inhibition at 10 µM: PaCa-2, PaCa2; for VEGFR-2 pg/mL ± SEM PaCa2: at 10 μM, control 326.80 ± 1.9
[7] = system: PaCa2 (pancreatic) cancer cell line; assay: 2D-monolayer antiproliferation (MTT) against PaCa2; assay type: cell-based, human; settings: for 1/(observed property): 1/observed IC50 (μM), PaCa2; for IC50: Homo sapiens, PaCa-2, MTT, 72 h incubation, PaCa2 pancreatic, read-out: IC50, μM ± SEM PaCa2; for SI (selectivity index) PaCa2: IC50 of RPE1 normal cell/IC50 of PaCa2
[8] = system: A549 (lung) cancer cell line; assay: 2D-monolayer antiproliferation (MTT) against A549; assay type: cell-based, human; settings: for IC50: Homo sapiens, MTT, 72 h incubation, A549 lung, read-out: IC50, μM ± SEM A549; for SI (selectivity index) A549: IC50 of RPE1 normal cell/IC50 of A549
[9] = system: MCF7 (breast) cancer cell line; assay: 2D-monolayer antiproliferation (MTT) against MCF7; assay type: cell-based, human; settings: for IC50: Homo sapiens, MTT, 72 h incubation, MCF7 breast, read-out: IC50, μM ± SEM MCF7; for SI (selectivity index) MCF7: IC50 of RPE1 normal cell/IC50 of MCF7
[10] = system: TNF-α; assay: TNF-α inhibitory properties (ELISA), PaCa2 cell lysate; assay type: cell-based, human; settings: at 10 μM; for TNF-α pg/mL (± SEM) PaCa2: control 111.8 ± 2.0
[11] = biological target: T2, VEGFR-2; assay: cell-based; assay type: cell-based; settings: for inhibition at 10 µM: MCF7; for VEGFR-2 pg/mL ± SEM MCF7: at 10 μM, control 258.70 ± 2.3
[12] = system: TNF-α; assay: TNF-α inhibitory properties (ELISA), MCF7 cell lysate; assay type: cell-based, human; settings: at 10 μM; for TNF-α pg/mL (± SEM) MCF7: control 83.26 ± 1.1
[13] = biological target: T3, COX-1 (Ovis aries, UniProt P05979); assay: biochemical; settings: 3 replicates, read-out: % Inhibition of COX-1 ± SEM
T3 construct: purchased BioVision incorporated USA K548–100
T3 sequence (P05979 25-600): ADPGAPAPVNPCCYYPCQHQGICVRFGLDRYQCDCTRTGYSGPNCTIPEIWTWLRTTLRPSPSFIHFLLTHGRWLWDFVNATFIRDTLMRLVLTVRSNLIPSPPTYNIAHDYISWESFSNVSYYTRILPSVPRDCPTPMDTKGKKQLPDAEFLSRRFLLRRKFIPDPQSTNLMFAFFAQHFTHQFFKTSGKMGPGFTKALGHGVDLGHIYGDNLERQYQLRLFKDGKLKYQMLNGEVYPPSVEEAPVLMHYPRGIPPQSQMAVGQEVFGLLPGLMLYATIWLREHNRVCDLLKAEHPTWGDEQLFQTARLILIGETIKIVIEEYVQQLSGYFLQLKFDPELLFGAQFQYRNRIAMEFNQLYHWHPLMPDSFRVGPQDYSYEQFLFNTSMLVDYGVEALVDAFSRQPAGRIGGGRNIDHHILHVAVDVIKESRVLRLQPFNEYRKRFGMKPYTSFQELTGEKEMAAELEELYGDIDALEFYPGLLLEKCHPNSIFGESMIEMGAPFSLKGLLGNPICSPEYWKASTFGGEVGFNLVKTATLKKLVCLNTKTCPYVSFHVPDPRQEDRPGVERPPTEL

[14] = MTT, 72 h incubation, HCT116 colon, read-out: IC50, μM ± SEM HCT116
[15] = log of observed IC50 (μM), HCT116, read-out: Log(observed property) (converted)

| SMILES | IC50 [1] [µM] | IC50 [2, 14] [µM] | SI (selectivity index) HCT116 [2] | inhibition at 10 µM [3] [%] | SI (selectivity index, COX-2/COX-1) [3] | inhibition at 10 µM [4] [%] | VEGFR-2 pg/mL ± SEM HCT116 [4] [pg/mL] | TNF-α pg/mL (± SEM) HCT116 [5] [pg/mL] | inhibition at 10 µM [6] [%] | VEGFR-2 pg/mL ± SEM PaCa2 [6] [pg/mL] | 1/(observed property) [7] | IC50 [7] [µM] | SI (selectivity index) PaCa2 [7] | IC50 [8] [µM] | SI (selectivity index) A549 [8] | IC50 [9] [µM] | SI (selectivity index) MCF7 [9] | TNF-α % inhibition PaCa2 [10] [%] | TNF-α pg/mL (± SEM) PaCa2 [10] [pg/mL] | inhibition at 10 µM [11] [%] | further results |
| --- | --- | --- | --- | --- | --- | --- | --- | --- | --- | --- | --- | --- | --- | --- | --- | --- | --- | --- | --- | --- | --- |
| CCOP(=O)(OCC)N1C/C(=C\c2ccc(C)cc2)C(=O)C2(C1)C(c1ccc(C)cc1)CN(C)C21C(=O)Nc2ccc(Cl)cc21 (stereo not shown) [Compound 17o, Diethyl (E)-[5-chloro-1′-methyl-5′′-(4-methylbenzylidene)-2,4′′-dioxo-4′-(p-tolyl)dispiro[indoline-3,2′-pyrrolidine-3′,3′′-piperidin]-1′′-yl]phosphonate] | > 50 | 3.76 ± 0.064 | > 13.3 | 59.3 ± 2.4 | 1.14 | 84.8 | 48.40 ± 0.6 | 86.34 ± 0.9 | 90.3 | 31.64 ± 1.9 | 0.1594 | 6.27 ± 0.148 | > 8.0 | 36 ± 1.15 | > 1.3 | 4.67 ± 0.086 | > 10.7 | 14.5 | 95.6 ± 2.2 | 85 | selectivity index (SI) ([1]; IC50 against RPE1 compared to the tested cancer cell line(s), in words): high selectivity index; IC50 [2, 15]: 3.76 µM; TNF-α % inhibition HCT116 [5]: 9.8%; VEGFR-2 pg/mL ± SEM MCF7 [11]: 38.70 ± 0.4 pg/mL; TNF-α % inhibition MCF7 [12]: 1.7%; TNF-α pg/mL (± SEM) MCF7 [12]: 81.85 ± 3.1 pg/mL; inhibition at 10 µM [13]: 61.7 ± 3.4% |
| CCOP(=O)(OCC)N1C/C(=C\c2cccs2)C(=O)C2(C1)C(c1cccs1)CN(C)C21C(=O)Nc2ccccc21 (stereo not shown) [Compound 17q, Diethyl (E)-[1′-methyl-2,4′′-dioxo-4′-(thiophen-2-yl)-5′′-(thiophen-2-ylmethylene)dispiro[indoline-3,2′-pyrrolidine-3′,3′′-piperidin]-1′′-yl]phosphonate] | 27.2 ± 0.813 | 11.8 ± 0.4 | 2.3 | 62.1 ± 3.1 | 0.93 | 58.4 | 132.30 ± 0.9 | 84.26 ± 0.8 | 58.5 | 135.70 ± 1.7 | 0.07485 | 13.4 ± 0.325 | 2.0 | 24.51 ± 0.204 | 1.1 | 9.13 ± 0.314 | 3.0 | 17.9 | 91.8 ± 2.7 | 43.7 | IC50 [2, 15]: 11.8 µM; TNF-α % inhibition HCT116 [5]: 12.0%; VEGFR-2 pg/mL ± SEM MCF7 [11]: 145.70 ± 1.9 pg/mL; TNF-α % inhibition MCF7 [12]: 3.1%; TNF-α pg/mL (± SEM) MCF7 [12]: 80.67 ± 2.8 pg/mL; inhibition at 10 µM [13]: 61.3 ± 1.5% |
| CCOP(=O)(OCC)N1C/C(=C\c2cccs2)C(=O)C2(C1)C(c1cccs1)CN(C)C21C(=O)Nc2ccc(F)cc21 (stereo not shown) [Compound 17r, Diethyl (E)-(5-fluoro-1′-methyl-2,4′′-dioxo-4′-(thiophen-2-yl)-5′′-(thiophen-2-ylmethylene)dispiro[indoline-3,2′-pyrrolidine-3′,3′′-piperidin]-1′′-yl)phosphonate] | 17 ± 0.557 | 7.67 ± 0.379 | 2.2 | 51.8 ± 2 | 1.09 | 78.8 | 67.34 ± 0.4 | 27.45 ± 1.4 | 79.6 | 66.53 ± 0.8 | 0.1206 | 8.29 ± 0.497 | 2.1 | 14.18 ± 0.135 | 1.2 | 6.22 ± 0.082 | 2.7 | 75.4 | 27.5 ± 0.5 | 67.4 | IC50 [2, 15]: 7.67 µM; VEGFR-2 pg/mL ± SEM MCF7 [11]: 84.30 ± 1.0 pg/mL; TNF-α % inhibition MCF7 [12]: 69.4%; TNF-α pg/mL (± SEM) MCF7 [12]: 25.46 ± 0.9 pg/mL; inhibition at 10 µM [13]: 55.5 ± 2.6% |
| CCOP(=O)(OCC)N1C/C(=C\c2cccs2)C(=O)C2(C1)C(c1cccs1)CN(C)C21C(=O)Nc2ccc(C)cc21 (stereo not shown) [Compound 17t, Diethyl (E)-(1′,5-dimethyl-2,4′′-dioxo-4′-(thiophen-2-yl)-5′′-(thiophen-2-ylmethylene)dispiro[indoline-3,2′-pyrrolidine-3′,3′′-piperidin]-1′′-yl)phosphonate] | 25.4 ± 0.951 | 7.34 ± 0.161 | 3.5 | 63.7 ± 1.7 | 1.29 | 60.8 | 124.70 ± 1.3 | 81.64 ± 2.1 | 64.8 | 115.00 ± 0.9 | 0.1056 | 9.47 ± 0.097 | 2.7 | 14.1 ± 0.201 | 1.8 | 6.45 ± 0.111 | 3.9 | 14.3 | 95.8 ± 2.5 | 62.6 | TNF-α % inhibition HCT116 [5]: 14.7%; VEGFR-2 pg/mL ± SEM MCF7 [11]: 96.70 ± 1.2 pg/mL; TNF-α % inhibition MCF7 [12]: 0.4%; TNF-α pg/mL (± SEM) MCF7 [12]: 82.91 ± 3.8 pg/mL; inhibition at 10 µM [13]: 49.2 ± 1.9% |

— PMC12504763, “Antiproliferation, 3D-multicellular spheroid and VEGFR-2 inhibitory properties of spiroindolin-2-ones with phosphonate function” (Scientific Reports, 2025)
